Test: Lymphatic transport assay in mesenteric lymph-duct cannulated rats
Format: in vivo, rat
Settings: class symbols
Description: In order to assess the lymphatic transport of disclosed lipid prodrugs in rats, the mesenteric lymph ducts of the rats used in this study were cannulated to allow continual collection of mesenteric lymph. Lipid formulations containing the compound of interest were then administered to the animals, lymph was collected, and drug concentrations in the lymph samples were quantified.
Lipid-based formulations of the compounds of the invention or control compounds were prepared as previously described (Trevaskis, N. L. et al., Pharmaceutical Research, 2005, 22(11), 1863-1870, WO 2016/023082, and WO 2017/041139, hereby incorporated by reference.
In brief, either 1 or 2 mg of test prodrug, 40 mg oleic acid and 25 mg Tween 80 were mixed in a glass vial and incubated at 37° C. for 12-18 h to equilibrate. An aqueous phase consisting of 5.6 ml phosphate buffered saline (PBS, pH 7.4) was subsequently added to the lipid phase (MPA was dissolved in PBS for the preparation of MPA containing formulations) and the formulation emulsified by ultrasonication with a Misonix XL 2020 ultrasonic processor (Misonix, Farmingdale, NY, USA) equipped with a 3.2-mm microprobe tip running at 30% of the maximal amplitude of 240 μm and a frequency of 20 kHz for 2 min at room temperature. Doses for administering to more than one animal can be prepared in one batch by suitably increasing the quantities given above. Drug/prodrug concentrations in all formulations were verified using HPLC-MS.
Male Sprague-Dawley (SD) rats were selected for the lymphatic transport studies. Rats (typically 240-320 g) were maintained on a standard diet and fasted overnight with free access to water prior to experiments.
Anesthetized rats were placed on a heated pad at 37° C. and cannulas inserted into the duodenum (for formulation administration and rehydration), mesenteric lymph duct (for lymph collection), and carotid artery (in cases where blood collection was conducted). Post-surgery, rats were re-hydrated for 0.5 h via intraduodenal infusion of normal saline at 2.8 mL/h. The lipid formulations were infused into the duodenum at 2.8 mL/h for 2 h after which, normal saline was infused at 2.8 mL/h for the remainder of the experiment. Lymph was continuously collected for up to 8 h into pre-weighed Eppendorf tubes containing 10 μL of 1,000 IU/mL heparin. The collection tubes were changed hourly and lymph flow was measured gravimetrically. Aliquots of hourly lymph samples were stored at −20° C. prior to assay.
Drug concentration in lymph is expressed as total drug and includes free drug and drug associated with different glycerides. Lymph samples are first treated with a lipase or other appropriate conditions to liberate free active agent prior to measurement of active agent levels in the lymph. Treatment with a lipase or other hydrolysis conditions liberates free active agent from any corresponding re-esterified glycerides. Porcine pancreatic lipase is appropriate for this purpose. Alternatively, hydrolysis with 0.5 M NaOH may be used. For MPA “phenol” prodrugs (i.e. prodrugs linked to the triglyceride at the aromatic —OH group of MPA), hydrolysis was performed with 0.5 M NaOH except for the lymph samples collected from 3 rats in the group of compound I-20 (MPA-O-C12α′βMe-TG), which were hydrolyzed by porcine pancreatic lipase.
Transport of compounds into lymph during each hourly collection period was calculated from the product of the volume of lymph collected and the measured concentrations in lymph. For fluorescently-labelled compounds such as a BDP-conjugate, the concentrations of total compound may be measured by fluorescence spectroscopy without hydrolysis.
The results of the lymphatic transport assays are summarized in Table 2, below, and FIGS. 1-19. Table 2 summarizes lymphatic transport of total MPA related compound (% of administered dose) following intraduodenal infusion to anaesthetised, mesenteric lymph-duct cannulated rats. […]

[1] = total MPA related compound, intraduodenal infusion, anesthetised mesenteric lymph-duct cannulated rats

With CCCCCCCCCCCCCCCC(=O)OCC(COC(=O)CCCCCCCCCCCCCCC)OC(=O)CC(C)CCCC(=O)Oc1c(C/C=C(\C)CCC(=O)OC)c(OC)c(C)c2c1C(=O)OC2 (stereo not drawn) [I-16, MPA-(O—C10bMe-2-TG)-OMe] the “Cumulative lymphatic transport % dose (Mean ± SD, or Range if n = 2)” value [1] was “A (greater than 10% (>10%))”.
In the case of CCCCCCCCCCCCCCCC(=O)OCC(COC(=O)CCCCCCCCCCCCCCC)OC(=O)CCC(=O)Oc1c(C/C=C(\C)CCC(=O)OC)c(OC)c(C)c2c1C(=O)OC2 [I-17], the “Cumulative lymphatic transport % dose (Mean ± SD, or Range if n = 2)” value [1] is reported as “C (less than 1% and greater than 0.24% (<1% and >0.24%))”.
For CCCCCCCCCCCCCCCC(=O)OCC(COC(=O)CCCCCCCCCCCCCCC)OC(=O)CCCCC(=O)Oc1c(C/C=C(\C)CCC(=O)OC)c(OC)c(C)c2c1C(=O)OC2 [I-18], the “Cumulative lymphatic transport % dose (Mean ± SD, or Range if n = 2)” value [1] was “B (between 1% and 10% (1%-10%))”.
In the case of CCCCCCCCCCCCCCCC(=O)OCC(COC(=O)CCCCCCCCCCCCCCC)OC(=O)CC(C)CCCCCCCC(C)C(=O)OCOC(=O)Oc1c(C/C=C(\C)CCC(=O)OC)c(OC)c(C)c2c1C(=O)OC2 (stereo not drawn) [I-21, (E)-12-(1,3-Bis(palmitoyloxy)propan-2-yl) 1-(((((6-methoxy-5-(6-methoxy-3-methyl-6-oxohex-2-en-1-yl)-7-methyl-3-oxo-1,3-dihydroisobenzofuran-4-yl)oxy)carbonyl)oxy)methyl) 2,10-dimethyldodecanedioate], the “Cumulative lymphatic transport % dose (Mean ± SD, or Range if n = 2)” value [1] is reported as “B (between 1% and 10% (1%-10%))”.
In the case of CCCCCCCCCCCCCCCC(=O)OCC(COC(=O)CCCCCCCCCCCCCCC)OCCCCOC(=O)CC/C(C)=C/Cc1c(O)c2c(c(C)c1OC)COC2=O [I-25, (E)-2-(4-((6-(4-hydroxy-6-methoxy-7-methyl-3-oxo-1,3-dihydroisobenzofuran-5-yl)-4-methylhex-4-enoyl)oxy)butoxy)propane-1,3-diyl dipalmitate], the “Cumulative lymphatic transport % dose (Mean ± SD, or Range if n = 2)” value [1] is reported as “C (less than 1% and greater than 0.24% (<1% and >0.24%))”.
For CCCCCCCCCCCCCCCC(=O)OCC(COC(=O)CCCCCCCCCCCCCCC)OCCCCCCOC(=O)CC/C(C)=C/Cc1c(O)c2c(c(C)c1OC)COC2=O [I-26, (E)-2-((6-((6-(4-hydroxy-6-methoxy-7-methyl-3-oxo-1,3-dihydroisobenzofuran-5-yl)-4-methylhex-4-enoyl)oxy)hexyl)oxy)propane-1,3-diyl dipalmitate], the “Cumulative lymphatic transport % dose (Mean ± SD, or Range if n = 2)” value [1] was “C (less than 1% and greater than 0.24% (<1% and >0.24%))”.
For CCCCCCCCCCCCCCCC(=O)OCC(COC(=O)CCCCCCCCCCCCCCC)OC(=O)OCCCOC(=O)CC/C(C)=C/Cc1c(O)c2c(c(C)c1OC)COC2=O [I-27, (E)-2-(((3-((6-(4-hydroxy-6-methoxy-7-methyl-3-oxo-1,3-dihydroisobenzofuran-5-yl)-4-methylhex-4-enoyl)oxy)propoxy)carbonyl)oxy)propane-1,3-diyl dipalmitate], the “Cumulative lymphatic transport % dose (Mean ± SD, or Range if n = 2)” value [1] was “B (between 1% and 10% (1%-10%))”.
For CCCCCCCCCCCCCCCC(=O)OCC(COC(=O)CCCCCCCCCCCCCCC)OC(=O)CCc1ccc(OC(=O)CC/C(C)=C/Cc2c(O)c3c(c(C)c2OC)COC3=O)cc1 [I-28, (E)-2-((3-(4-((6-(4-hydroxy-6-methoxy-7-methyl-3-oxo-1,3-dihydroisobenzofuran-5-yl)-4-methylhex-4-enoyl)oxy)phenyl)propanoyl)oxy)propane-1,3-diyl dipalmitate], the “Cumulative lymphatic transport % dose (Mean ± SD, or Range if n = 2)” value [1] was “B (between 1% and 10% (1%-10%))”.
In the case of CCCCCCCCCCCCCCCC(=O)OCC(COC(=O)CCCCCCCCCCCCCCC)OC(=O)CCCCCCCCCCC(=O)Oc1c(C/C=C(\C)CCC(=O)OC)c(OC)c(C)c2c1C(=O)OC2 [I-30, (E)-1-(1,3-bis(palmitoyloxy)propan-2-yl) 12-(6-methoxy-5-(6-methoxy-3-methyl-6-oxohex-2-en-1-yl)-7-methyl-3-oxo-1,3-dihydroisobenzofuran-4-yl) dodecanedioate], the “Cumulative lymphatic transport % dose (Mean ± SD, or Range if n = 2)” value [1] is reported as “A (greater than 10% (>10%))”.
With CCCCCCCCCCCCCCCC(=O)OCC(COC(=O)CCCCCCCCCCCCCCC)OC(=O)CC(C)CCCCCCCCCCCC(=O)Oc1c(C/C=C(\C)CCC(=O)OC)c(OC)c(C)c2c1C(=O)OC2 (stereo not drawn) [I-31, (E)-1-(1,3-bis(palmitoyloxy)propan-2-yl) 15-(6-methoxy-5-(6-methoxy-3-methyl-6-oxohex-2-en-1-yl)-7-methyl-3-oxo-1,3-dihydroisobenzofuran-4-yl) 3-methylpentadecanedioate] the “Cumulative lymphatic transport % dose (Mean ± SD, or Range if n = 2)” value [1] was “A (greater than 10% (>10%))”.
For CCCCCCCCCCCCCCCC(=O)OCC(COC(=O)CCCCCCCCCCCCCCC)OC(=O)CC(C)CCCCCCCC(C)C(=O)Oc1c(C/C=C(\C)CCC(=O)OCCN2CCOCC2)c(OC)c(C)c2c1C(=O)OC2 (stereo not drawn) [I-32, (E)-12-(1,3-bis(palmitoyloxy)propan-2-yl) 1-(6-methoxy-7-methyl-5-(3-methyl-6-(2-morpholinoethoxy)-6-oxohex-2-en-1-yl)-3-oxo-1,3-dihydroisobenzofuran-4-yl) 2,10-dimethyldodecanedioate], the “Cumulative lymphatic transport % dose (Mean ± SD, or Range if n = 2)” value [1] was “A (greater than 10% (>10%))”.
With CCCCCCCCCCCCCCCC(=O)OCC(COC(=O)CCCCCCCCCCCCCCC)OC(=O)CCCCCCOC(=O)CC/C(C)=C/Cc1c(O)c2c(c(C)c1OC)COC2=O [I-36, (E)-2-((7-((6-(4-hydroxy-6-methoxy-7-methyl-3-oxo-1,3-dihydroisobenzofuran-5-yl)-4-methylhex-4-enoyl)oxy)heptanoyl)oxy)propane-1,3-diyl dipalmitate] the “Cumulative lymphatic transport % dose (Mean ± SD, or Range if n = 2)” value [1] was “B (between 1% and 10% (1%-10%))”.
For CCCCCCCCCCCCCCCC(=O)OCC(COC(=O)CCCCCCCCCCCCCCC)OC(=O)CCCCCCCCCCCOC(=O)CC/C(C)=C/Cc1c(O)c2c(c(C)c1OC)COC2=O [I-37, (E)-2-((12-((6-(4-hydroxy-6-methoxy-7-methyl-3-oxo-1,3-dihydroisobenzofuran-5-yl)-4-methylhex-4-enoyl)oxy)dodecanoyl)oxy)propane-1,3-diyl dipalmitate], the “Cumulative lymphatic transport % dose (Mean ± SD, or Range if n = 2)” value (as E2 but dose 1 mg/rat) was “A (greater than 10% (>10%))”.
In the case of CCCCCCCCCCCCCCCC(=O)OCC(COC(=O)CCCCCCCCCCCCCCC)OC(=O)CCCCCCCCCCCCCCCCCOC(=O)CC/C(C)=C/Cc1c(O)c2c(c(C)c1OC)COC2=O [I-38, (E)-2-((18-((6-(4-hydroxy-6-methoxy-7-methyl-3-oxo-1,3-dihydroisobenzofuran-5-yl)-4-methylhex-4-enoyl)oxy)octadecanoyl)oxy)propane-1,3-diyl dipalmitate], the “Cumulative lymphatic transport % dose (Mean ± SD, or Range if n = 2)” value (as E2 but dose 1 mg/rat) is reported as “B (between 1% and 10% (1%-10%))”.
For CCCCCCCCCCCCCCCC(=O)OCC(COP(=O)(O)OCC[N+](C)(C)C)OC(=O)CC/C(C)=C/Cc1c(O)c2c(c(C)c1OC)COC2=O (stereo not drawn) [I-39], the “Cumulative lymphatic transport % dose (Mean ± SD, or Range if n = 2)” value [1] was “C (less than 1% and greater than 0.24% (<1% and >0.24%))”.
With CCCCCCCCCCCCCCCC(=O)OCC(COC(=O)CCCCCCCCCCCCCCC)OC(=O)C(C)CCCCCCCCC(C)C(=O)OCOc1c(C/C=C(\C)CCC(=O)OC)c(OC)c(C)c2c1C(=O)OC2 (stereo not drawn) [I-41] the “Cumulative lymphatic transport % dose (Mean ± SD, or Range if n = 2)” value [1] was “A (greater than 10% (>10%))”.
In the case of CCCC(=O)OCC(COC(=O)CCC)OC(=O)CC(C)CCCCCCCCCCCCOC(=O)CC/C(C)=C/Cc1c(O)c2c(c(C)c1OC)COC2=O (stereo not drawn) [I-43], the “Cumulative lymphatic transport % dose (Mean ± SD, or Range if n = 2)” value [1] is reported as “A (greater than 10% (>10%))”.
In the case of CCCCCCCCCCCCCCCC(=O)OCC(COC(=O)CCCCCCCCCCCCCCC)OC(=O)CC(C)CCCCCCCC(C)C(=O)OCOc1c(C/C=C(\C)CCC(=O)OC)c(OC)c(C)c2c1C(=O)OC2 (stereo not drawn) [I-44], the “Cumulative lymphatic transport % dose (Mean ± SD, or Range if n = 2)” value [1] is reported as “A (greater than 10% (>10%))”.
